Experimental findings from patent publication US20230416307A1, “[…] PEPTIDES FOR ENHANCING VIRAL PRODUCTION” (Synvivia, Inc., priority 2022, published 2023) are described below.

One assay concerns AAV2-GFP. Nature of the assay: Transduction efficiency (TU:VG ratio) of AAV2-GFP packaged in cells expressing a CP. Type of assay: cell-based, adeno-associated virus. As to conditions: for transduction efficiency of AAV2-GFP produced in the presence of CP: FIG. 23, CP plasmid 0.3 ng to 100 ng, versus control without CP. The text has this:
AAV2-GFP were harvested and assayed for biological and physical titer as described in FIG. 20
FIG. 24. […] This figure depicts the raw flow cytometry data used to determine the biological titer of AAV samples. This is an example of the data that was used to determine the biological titers in FIG. 23. The X-axis of each graph represents the forward light scattering (FSC) from flow cytometry. The Y-axis represents the GFP intensity of each cell. A 1000-fold dilution of AAV2-GFP particles produced either in the presence (A) or absence (B) of cyclic peptide were used to transduce HEK293 cells. A 1000-fold dilution of the preparation was used (e.g., without physical titer normalization) to ensure a direct, batch-to-batch comparison of the impact of cyclic peptide on viral packaging performance.
As used herein, the term “transduction efficiency” refers to the effectiveness (efficiency) of viral particles in delivering their genetic payload to the target cells. This efficiency may be represented by the transducing units to vector genomes ratio (TU:VG). Viral formulations with enhanced transduction efficiency can achieve greater numbers of DNA delivery events for the same number of DNA-containing viral particles. […] Enhanced transduction efficiency may be achieved by optimizing the cellular environment for viral production, leading to viral particles with improved capsid structure, viral particle biochemistry, or viral particle assembly. Increasing transduction efficiency refers to improvements in the TU:VG ratio, which encompasses both infectivity and biological titer.
• 1. A 100-mm cell culture dish was reseeded with 4.0×10^6 Hek293T cells in high glucose DMEM culture medium supplemented with 10% FBS. • 2. […] A jetOPTIMUS DNA transfection reagent i used during the transfection protocol (from Polyplus). • 3. 12-16 hours after transfection, media was replaced with low glucose DMEM culture medium supplemented with 1% FBS, 1×Glutamax, 10 mM HEPES, and 0.075% sodium bicarbonate. • 4. Cells and media were harvested 4 days after transfection and frozen in 1 mL aliquots. • 5. Frozen aliquots were thawed and lysed using AAVMax Lysis Reagent (Life Technologies, USA, A50520). 100 uL of AAVMax Lysis buffer was added to 900 uL of cell and media. Mixture was incubated for 2 hours with rotating. Debris was pelleted at 5,000xg for 15 minutes. AAV containing supernatant was collected. • 6. The physical and biological titers of the harvested AAV samples were determined by qPCR and biological viral titer measurement as described in Example 1.
Full, but non-functional viral particles represent a major manufacturing challenge for AAV gene therapies. At present, there is no process capable of purifying the functional viral particles from the full, but non-functional fraction.

Assay [1] relates to Lentivirus. Nature of the assay: Lentivirus particle (physical) titer by Lenti-X GoStix Plus after packaging with a CP generator plasmid. It is filed as cell-based. The settings on record: FIG. 25; generator plasmid 0.5, 5, 50 ng; normalised to six no-CP controls. On the procedure: (§1) Cyclic peptides are used herein to improve viral titer and transduction efficiency during lentiviral production. Lentivirus was produced using Takara Bio lentivirus packaging kit either with (left panels) or without (right panels; bars labeled CTRL) a cyclic peptide generator plasmid. The cyclic peptides produced by different amounts (e.g., 0.5 ng, 5 ng and 50 ng) of corresponding generator plasmids were CSSLT (SEQ ID NO: 37), CGSTKS (SEQ ID NO: 43), CKYEE (SEQ ID NO: 40), CPYTD (SEQ ID NO: 44), CPLQVP (SEQ ID NO: 45). 5 ng plasmid experiment for CGSTKS (SEQ ID NO: 43) failed and is not shown. The virus was collected, and particle titers were enumerated using Takara Bio Lenti-X GoStix Plus quantitative lentiviral titer test. The biological titer was determined by transducing fresh HEK293 cells with the various lentiviral preparations (e.g., packaged with or without a cyclic peptide). The fold difference in particle titer and transduction unit titer is calculated by normalizing to the average of six control lentiviral transductions from packaging runs without cyclic peptide. The control (CTRL) conditions illustrate negligible noise.
This example illustrates methodologies for Cyclic peptide-enhanced lentiviral vector production. • 1) Cells were seeded at 4-5×10^6 cells per 10-cm plate, 24 hours prior to transfection, to achieve 80-90% confluence at the time of transfection. • 2) 7.0 μg of lentiviral vector plasmid DNA was diluted in sterile water to a volume of 600 μl along with a cyclic peptide generator that expresses a cyclic peptide. • 3) Titration of cyclic peptide plasmid DNA concentrations, from 0.5 ng to 50 ng, was used in this Example. However, the amount of required plasmid DNA depends on many factors, including the specific cyclic peptide being expressed, the cyclic peptide generator (e.g. more efficient cyclic peptide generators may need less DNA), and promoter strength (the pCMV promoter driving strong expression is used in this Example). • 4) Between 4-8 control conditions (depending on number of experimental conditions) were also prepared that are identical to the above, except that no cyclic peptide plasmid was added. • 5) This DNA was added to a tube of Lenti-X Packaging Single Shots and vortexed to mix. • 6) The mixture was incubated for 10 minutes at room temperature to allow the formation of nanoparticle complexes, then briefly centrifuged. • 7) The entire 600 μl of nanoparticle complex solution was added dropwise to the packaging cells, which were then rocked gently to mix. • 8) Lentiviral packaging. […] They were centrifuged or filtered to remove cellular debris, using a filter of cellulose acetate or polysulfone, not nitrocellulose. • 10) Virus production was verified and can be quantified using Lenti-X GoStix™ Plus or any other standard methodology. Then, the virus can be used to transduce target cells or stored at −80° C. • 11) Next, for each viral production condition (e.g., different cyclic peptide packaging conditions, CP dosages, and controls), a three order of magnitude serial dilution at 10-fold dilution steps was performed. • 12) All viral samples were then transduced, harboring a GFP transgene, into fresh HEK293 cells. • 13) After 3 days, the transduced cells were collected, and analyzed them by flow cytometry (see FIG. 26). • 14) Finally, the biological titer (flow cytometry) and physical titer (GoStix) were normalized to the no-CP control to determine the fold improvements in both viral titer and infectiousness. […]

The subject of assay [2] is Lentivirus. Nature of the assay: Lentivirus biological titer (flow cytometry of transduced HEK293 cells) after packaging with a CP generator plasmid. It is filed as cell-based. As to conditions: for lentiviral biological (transduction unit) titer, fold difference to control: FIG. 25, generator plasmid 0.5, 5, 50 ng, HEK293 cells. On the procedure: as §1
FIG. 26. Exemplary representative flow cytometry raw data illustrating that when cyclic peptide CGSTKS (SEQ ID NO: 43) is present during lentiviral production, the biological titer increases by over 8-fold compared to when the cyclic peptide is absent. This figure depicts the raw flow cytometry data used to determine the biological titer of lentiviral samples. This is an example of the data that was used to determine the lentiviral biological titers in FIG. 25. The X-axis of each graph represents the forward light scattering (FSC) from flow cytometry. The Y-axis represents the GFP intensity of each cell. A 100-fold dilution of Lentivirus with a GFP payload produced either in the presence (A) or absence (B) of cyclic peptide were used to transduce HEK293 cells. A 100-fold dilution of the preparation was used (e.g., without physical titer normalization) to ensure a direct, batch-to-batch comparison of the impact of the cyclic peptide on viral packaging performance. • Part A—Flow cytometry raw data (with minor forward and side scatter gating to remove irrelevant particles) of HEK293 transduced with a lentiviral preparation produced in the presence of cyclic peptide CGSTKS (SEQ ID NO: 43) generated from a plasmid constructed transduced into packaging cells at 0.5 ng. • Part B—Flow cytometry raw data (with minor forward and side scatter gating to remove irrelevant particles) of HEK293 transduced with a lentiviral preparation produced without cyclic peptide.
This example illustrates methodologies for Cyclic peptide-enhanced lentiviral vector production. • 1) Cells were seeded at 4-5×10^6 cells per 10-cm plate, 24 hours prior to transfection, to achieve 80-90% confluence at the time of transfection. • 2) 7.0 μg of lentiviral vector plasmid DNA was diluted in sterile water to a volume of 600 μl along with a cyclic peptide generator that expresses a cyclic peptide. • 3) Titration of cyclic peptide plasmid DNA concentrations, from 0.5 ng to 50 ng, was used in this Example. […]
(In general: Flow cytometry measures light scatter and fluorescence of single cells or particles in a stream.)

Ends that are not written are not given here.

As for “CCRPH: engineered cyclic peptide, printed as SEQ ID NO: 37”, in the assay on AAV2-GFP, the “transduction efficiency of AAV2-GFP produced in the presence of CP” value (shortened to “transduction efficiency … of CP”) is listed as “improvements in transduction efficiency”.
On to “CGSTKS: engineered cyclic peptide, SEQ ID NO: 43 (also: cyclic, closure not given here)”, for which, in the assay with Lentivirus [1], the “lentiviral physical (particle) titer, fold difference to control” value was “unexpected degree of improvement”. In the assay with Lentivirus [2], the “lentiviral biological (transduction unit) titer, fold difference to control” value is “unexpected degree of improvement”. In the assay with Lentivirus [2] (FIG. 26, generator plasmid at 0.5 ng, 100-fold dilution on HEK293 cells, versus no CP), the “increase of lentiviral biological titer” value is listed as “over 8 fold”.
As to “CKYEE: engineered cyclic peptide, SEQ ID NO: 40 (also: cyclic, closure not given here)”, the “transduction efficiency … of CP” value in the assay on AAV2-GFP was “improvements in transduction efficiency”. Moreover, in the assay on Lentivirus [1], the “lentiviral physical (particle) titer, fold difference to control” value is “unexpected degree of improvement”. In addition, in the assay on Lentivirus [2], the “lentiviral biological (transduction unit) titer, fold difference to control” value is “unexpected degree of improvement”.
Turning to “CPLQVP: engineered cyclic peptide, SEQ ID NO: 45 (also: cyclic, closure not given here)”, in the assay on Lentivirus [1], the “lentiviral physical (particle) titer, fold difference to control” value is given as “unexpected degree of improvement”. The “lentiviral biological (transduction unit) titer, fold difference to control” value with Lentivirus [2] is given as “unexpected degree of improvement”.
With “CPYTD: engineered cyclic peptide, SEQ ID NO: 44 (also: cyclic, closure not given here)”, the “lentiviral physical (particle) titer, fold difference to control” value with Lentivirus [1] is recorded as “unexpected degree of improvement”. In addition, the “lentiviral biological (transduction unit) titer, fold difference to control” value with Lentivirus [2] is reported as “unexpected degree of improvement”.
In the case of “CQVFQL: engineered cyclic peptide, SEQ ID NO: 42 (also: cyclic, closure not given here)”, the “transduction efficiency … of CP” value in the assay on AAV2-GFP is recorded as “improvements in transduction efficiency”.
Regarding “CRVSY: engineered cyclic peptide, SEQ ID NO: 41 (also: cyclic, closure not given here)”, in the assay on AAV2-GFP, the “transduction efficiency … of CP” value is given as “improvements in transduction efficiency”.
Turning to “CSSLT: engineered cyclic peptide, SEQ ID NO: 37 (also: cyclic, closure not given here)”, in the assay with AAV2-GFP, the “transduction efficiency … of CP” value is reported as “improvements in transduction efficiency”. Further, in the assay on Lentivirus [1], the “lentiviral physical (particle) titer, fold difference to control” value is “unexpected degree of improvement”. The “lentiviral biological (transduction unit) titer, fold difference to control” value in the assay on Lentivirus [2] is on record as “unexpected degree of improvement”.
“CTHKVS: engineered cyclic peptide, SEQ ID NO: 38 (also: cyclic, closure not given here)”: the “transduction efficiency … of CP” value in the assay on AAV2-GFP was “improvements in transduction efficiency”.
Turning to “CYNHAR: engineered cyclic peptide, SEQ ID NO: 35, corresponds to generator plasmid T2851-8 (cyclic; Cyclic peptide that was found to increase or decrease AAV viral titer in a dose-responsive manner.)”, the “increased transduction efficiency (TU:VG ratio)” value with AAV2-GFP (FIG. 21 legend, data not shown) is on record as ~2.4 ×.
